Results from patent US20230099344A1, “COMPOUNDS AND METHODS FOR THE TARGETED DEGRADATION OF IRAK-4” (Arvinas Operations, Inc., priority 2021, published 2023).

Columns and labels:
Type in all cases: cell-based
IRAK-4 = target: T1, IRAK-4 (Homo sapiens, UniProt Q9NWZ3); experiment: IRAK-4 ELISA, PBMC degradation; parameters: endogenous in cells; host or cells: PBMC; settings: treated overnight
T1 sequence (Q9NWZ3 1-460): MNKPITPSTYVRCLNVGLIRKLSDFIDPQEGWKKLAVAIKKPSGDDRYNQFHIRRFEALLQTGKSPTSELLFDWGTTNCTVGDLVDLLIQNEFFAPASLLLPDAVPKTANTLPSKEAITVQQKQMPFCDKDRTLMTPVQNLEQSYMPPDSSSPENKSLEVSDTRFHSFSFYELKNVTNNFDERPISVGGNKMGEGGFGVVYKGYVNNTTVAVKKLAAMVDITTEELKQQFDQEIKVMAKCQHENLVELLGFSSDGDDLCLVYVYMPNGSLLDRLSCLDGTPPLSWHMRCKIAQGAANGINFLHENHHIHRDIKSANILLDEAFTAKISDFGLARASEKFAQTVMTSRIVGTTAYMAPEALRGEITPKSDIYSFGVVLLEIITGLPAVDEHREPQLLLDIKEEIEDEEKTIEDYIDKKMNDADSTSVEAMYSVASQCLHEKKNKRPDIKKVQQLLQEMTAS
How it was run: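 OCI-Ly10 cells (seeded at 1×10^6/ml) or human PBMC (seeded at 2×10^6/ml) were treated with compound on the day of seeding and incubated overnight. Lysates were then assayed for remaining IRAK-4 protein by sandwich ELISA with a matched antibody pair.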

IL6 [1] = experiment: R848 stimulated IL6 inhibition assay in PBMC; settings: human PBMCs, R848 stimulation, compound overnight, IL6 by MSD after 24 hrs; for Dmax: Homo sapiens, 24 h, read-out: R848 stim IL6 inhibition Dmax; for IC50: read-out: R848 stim IL6 inhibition IC50
How it was run: (§1)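 Read-out: MSD quantification of IL6 or IL8 in media collected 24 hrs after stimulation. Human PBMCs (2.0×10^6 cells/mL) received compound overnight before stimulant dosing at an EC50 concentration determined per donor.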

IL6 [2] = experiment: LPS stimulated IL6 inhibition assay in PBMC; settings: human PBMCs, LPS stimulation, compound overnight, IL6 by MSD after 24 hrs; for Dmax: read-out: LPS Stim IL6 inhibition Dmax; for IC50: read-out: LPS stim IL6 inhibition IC50
How it was run: as §1

CCN(C1CN(c2ccc(C(=O)NC3CCC(=O)NC3=O)c(F)c2)C1)[C@H]1CC[C@H](n2cc3cc(NC(=O)c4cnn5cccnc45)c(OCC4CC4)cc3n2)CC1 (stereo partly shown) [Example 369]
DC50 (IRAK-4): 1 to 5 nM
Dmax (IRAK-4): ≥ 90%
PBMC DC90 (IRAK-4): A (A represents a DC90 value <10.0 nM)
Dmax (IL6 [1]; PBMC): ≥ 90%
IC50 (IL6 [1]; PBMC): 10 to 50 nM
Dmax (IL6 [2]; Homo sapiens, PBMC, 24 h): < 70%
IC50 (IL6 [2]; Homo sapiens, PBMC, 24 h): 10 to 50 nM

CN(C1CN(c2ccc3c(c2)CN(C2CCC(=O)NC2=O)C3=O)C1)[C@H]1CC[C@H](N2Cc3cc(NC(=O)c4cnn5cccnc45)c(N4CCC(N5CCC5)CC4)cc3C2=O)CC1 (stereo partly shown) [Example 370]
DC50 (IRAK-4): 1 to 5 nM
Dmax (IRAK-4): ≥ 90%
PBMC DC90 (IRAK-4): A (A represents a DC90 value <10.0 nM)
Dmax (IL6 [1]; PBMC): ≥ 90%
IC50 (IL6 [1]; PBMC): < 10 nM
Dmax (IL6 [2]; Homo sapiens, PBMC, 24 h): ≥ 90%
IC50 (IL6 [2]; Homo sapiens, PBMC, 24 h): < 10 nM

CN(C1CCN(c2ccc3c(c2)C(=O)N(C2CCC(=O)NC2=O)C3=O)CC1)[C@H]1CC[C@H](N2Cc3cc(NC(=O)c4cnn5cccnc45)c(N4CCN(CC(F)F)CC4)cc3C2=O)CC1 (stereo partly shown) [Example 371]
DC50 (IRAK-4): < 1 nM
Dmax (IRAK-4): ≥ 90%
PBMC DC90 (IRAK-4): B (B represents a DC90 value ≥10.0 nM and <25.0 nM)
Dmax (IL6 [1]; PBMC): ≥ 90%
IC50 (IL6 [1]; PBMC): 10 to 50 nM
Dmax (IL6 [2]; Homo sapiens, PBMC, 24 h): 70 to 80%
IC50 (IL6 [2]; Homo sapiens, PBMC, 24 h): 10 to 50 nM

CN([C@H]1CC[C@H](n2cc3cc(NC(=O)c4cnn5cccnc45)c(OCC4CC4)cc3n2)CC1)[C@H]1C[C@H](Oc2ccc3c(c2)C(=O)N(C2CCC(=O)NC2=O)C3=O)C1 (stereo partly shown) [Example 372]
DC50 (IRAK-4): < 1 nM
Dmax (IRAK-4): ≥ 90%
PBMC DC90 (IRAK-4): A (A represents a DC90 value <10.0 nM)
Dmax (IL6 [1]; PBMC): ≥ 90%
IC50 (IL6 [1]; PBMC): 10 to 50 nM
Dmax (IL6 [2]; Homo sapiens, PBMC, 24 h): 80 to 90%
IC50 (IL6 [2]; Homo sapiens, PBMC, 24 h): < 10 nM

CCN([C@H]1CC[C@H](n2cc3cc(NC(=O)c4cnn5cccnc45)c(OCC4CC4)cc3n2)CC1)[C@H]1C[C@H](Oc2ccc3c(c2)C(=O)N(C2CCC(=O)NC2=O)C3=O)C1 (stereo partly shown) [Example 373]
DC50 (IRAK-4): < 1 nM
Dmax (IRAK-4): ≥ 90%
PBMC DC90 (IRAK-4): A (A represents a DC90 value <10.0 nM)
Dmax (IL6 [1]; PBMC): 80 to 90%
IC50 (IL6 [1]; PBMC): 10 to 50 nM
Dmax (IL6 [2]; Homo sapiens, PBMC, 24 h): 70 to 80%
IC50 (IL6 [2]; Homo sapiens, PBMC, 24 h): 10 to 50 nM

O=C1CCC(N2C(=O)c3ccc(O[C@H]4C[C@H](N[C@H]5CC[C@H](n6cc7cc(NC(=O)c8cnn9cccnc89)c(OCC8CC8)cc7n6)CC5)C4)cc3C2=O)C(=O)N1 (stereo partly shown) [Example 374]
DC50 (IRAK-4): < 1 nM
Dmax (IRAK-4): ≥ 90%
PBMC DC90 (IRAK-4): B (B represents a DC90 value ≥10.0 nM and <25.0 nM)
Dmax (IL6 [1]; PBMC): ≥ 90%
IC50 (IL6 [1]; PBMC): 10 to 50 nM
Dmax (IL6 [2]; Homo sapiens, PBMC, 24 h): 70 to 80%
IC50 (IL6 [2]; Homo sapiens, PBMC, 24 h): 10 to 50 nM

O=C1CCC(N2C(=O)c3ccc(N4CCN(C[C@H]5CC[C@H](n6cc7cc(NC(=O)c8cnn9cccnc89)c(OCC8CC8)cc7n6)CC5)CC4)cc3C2=O)C(=O)N1 (stereo partly shown) [Example 375]
DC50 (IRAK-4): 1 to 5 nM
Dmax (IRAK-4): ≥ 90%
PBMC DC90 (IRAK-4): A (A represents a DC90 value <10.0 nM)
Dmax (IL6 [1]; PBMC): ≥ 90%
IC50 (IL6 [1]; PBMC): 10 to 50 nM
Dmax (IL6 [2]; Homo sapiens, PBMC, 24 h): 70 to 80%
IC50 (IL6 [2]; Homo sapiens, PBMC, 24 h): < 10 nM

O=C1CCC(NC(=O)c2ccc(O[C@H]3C[C@H](N[C@H]4CC[C@H](n5cc6cc(NC(=O)c7cnn8cccnc78)c(OCC7CC7)cc6n5)CC4)C3)cc2F)C(=O)N1 (stereo partly shown) [Example 376]
DC50 (IRAK-4): 1 to 5 nM
Dmax (IRAK-4): ≥ 90%
PBMC DC90 (IRAK-4): A (A represents a DC90 value <10.0 nM)
Dmax (IL6 [1]; PBMC): ≥ 90%
IC50 (IL6 [1]; PBMC): 10 to 50 nM
Dmax (IL6 [2]; Homo sapiens, PBMC, 24 h): 70 to 80%
IC50 (IL6 [2]; Homo sapiens, PBMC, 24 h): 10 to 50 nM

Cn1c(=O)n(C2CCC(=O)NC2=O)c2cccc(N3CC(CN4CCC(n5cc6cc(NC(=O)c7cnn8cccnc78)c(OCC7CC7)cc6n5)CC4)C3)c21 (stereo not shown) [Example 378, N-(6-(cyclopropylmethoxy)-2-(1-((1-(1-(2,6-dioxopiperidin-3-yl)-3-methyl-2-oxo-2,3-dihydro-1H-benzo[d]imidazol-4-yl)azetidin-3-yl)methyl)piperidin-4-yl)-2H-indazol-5-yl)pyrazolo[1,5-a]pyrimidine-3-carboxamide]
DC50 (IRAK-4): < 1 nM
Dmax (IRAK-4): ≥ 90%
PBMC DC90 (IRAK-4): A (A represents a DC90 value <10.0 nM)
Dmax (IL6 [1]; PBMC): ≥ 90%
IC50 (IL6 [1]; PBMC): < 10 nM
Dmax (IL6 [2]; Homo sapiens, PBMC, 24 h): 80 to 90%
IC50 (IL6 [2]; Homo sapiens, PBMC, 24 h): < 10 nM

CC(C)Oc1cc2c(cc1NC(=O)c1cnn3cccnc13)CN(C1CCN(CC3CN(c4cccc5c4n(C)c(=O)n5C4CCC(=O)NC4=O)C3)CC1)C2=O (stereo not shown) [Example 381]
DC50 (IRAK-4): < 1 nM
Dmax (IRAK-4): ≥ 90%
PBMC DC90 (IRAK-4): A (A represents a DC90 value <10.0 nM)
Dmax (IL6 [1]; PBMC): ≥ 90%
IC50 (IL6 [1]; PBMC): 10 to 50 nM
Dmax (IL6 [2]; Homo sapiens, PBMC, 24 h): 70 to 80%
IC50 (IL6 [2]; Homo sapiens, PBMC, 24 h): < 10 nM

CC(C)Oc1cc2c(cc1NC(=O)c1cnn3cccnc13)CN(C[C@@H](F)C1CCN(CC3CN(c4cccc5c4n(C)c(=O)n5C4CCC(=O)NC4=O)C3)CC1)C2=O (stereo partly shown) [Example 382]
DC50 (IRAK-4): < 1 nM
Dmax (IRAK-4): ≥ 90%
PBMC DC90 (IRAK-4): A (A represents a DC90 value <10.0 nM)
Dmax (IL6 [1]; PBMC): ≥ 90%
IC50 (IL6 [1]; PBMC): 10 to 50 nM
Dmax (IL6 [2]; Homo sapiens, PBMC, 24 h): 70 to 80%
IC50 (IL6 [2]; Homo sapiens, PBMC, 24 h): 10 to 50 nM

CC(C)Oc1cc2c(cc1NC(=O)c1cnn3cccnc13)CN([C@H]1CC[C@H](N(C)C3CN(c4cccc5c4n(C)c(=O)n5C4CCC(=O)NC4=O)C3)CC1)C2=O (stereo partly shown) [Example 384, N-(2-((1r,4r)-4-((1-(1-(2,6-dioxopiperidin-3-yl)-3-methyl-2-oxo-2,3-dihydro-1H-benzo[d]imidazol-4-yl)azetidin-3-yl)(methyl)amino)cyclohexyl)-6-isopropoxy-1-oxoisoindolin-5-yl)pyrazolo[1,5-a]pyrimidine-3-carboxamide]
DC50 (IRAK-4): < 1 nM
PBMC DC90 (IRAK-4): A (A represents a DC90 value <10.0 nM)
PBMC Dmax (IRAK-4): A (A represents a Dmax value ≥90)
R848 stim IL6 inhibition Dmax (IL6 [1]): A (A represents a Ymax value ≥90)
IC50 (IL6 [1]): < 10 nM
LPS Stim IL6 inhibition Dmax (IL6 [2]): C (C represents a Ymax value ≥70 and <80)
IC50 (IL6 [2]): ≥ 100 nM

C=Nc1c(C(=O)Nc2cc3cn(C4CCN(CC5(F)CN(c6cccc7c6n(C)c(=O)n7C6CCC(=O)NC6=O)C5)CC4)nc3cc2C2CC2)cnn1/C=C\C (stereo not shown) [Example 389]
DC50 (IRAK-4): < 1 nM
Dmax (IRAK-4): 80 to 90%
PBMC DC90 (IRAK-4): A (A represents a DC90 value <10.0 nM)
Dmax (IL6 [1]; PBMC): ≥ 90%
IC50 (IL6 [1]; PBMC): 10 to 50 nM
Dmax (IL6 [2]; Homo sapiens, PBMC, 24 h): ≥ 90%
IC50 (IL6 [2]; Homo sapiens, PBMC, 24 h): ≥ 100 nM

CC(C)Oc1nc2c(cc1NC(=O)c1cnn3cccnc13)CN(C1CCN(CC3CN(c4ccc(C(=O)NC5CCC(=O)NC5=O)c(F)c4)C3)CC1)C2=O (stereo not shown) [Example 402]
DC50 (IRAK-4): < 1 nM
Dmax (IRAK-4): ≥ 90%
PBMC DC90 (IRAK-4): A (A represents a DC90 value <10.0 nM)
Dmax (IL6 [1]; PBMC): 80 to 90%
IC50 (IL6 [1]; PBMC): 10 to 50 nM
Dmax (IL6 [2]; Homo sapiens, PBMC, 24 h): < 70%
IC50 (IL6 [2]; Homo sapiens, PBMC, 24 h): 10 to 50 nM

O=C1CCC(N2C(=O)c3ccc(N4CCCC5(C4)CN([C@H]4CC[C@H](n6cc7cc(NC(=O)c8cnn9cccnc89)c(OCC8CC8)cc7n6)CC4)C5)cc3C2=O)C(=O)N1 (stereo partly shown) [Example 418]
DC50 (IRAK-4): < 1 nM
Dmax (IRAK-4): 80 to 90%
PBMC DC90 (IRAK-4): A (A represents a DC90 value <10.0 nM)
Dmax (IL6 [1]; PBMC): ≥ 90%
IC50 (IL6 [1]; PBMC): < 10 nM
Dmax (IL6 [2]; Homo sapiens, PBMC, 24 h): 80 to 90%
IC50 (IL6 [2]; Homo sapiens, PBMC, 24 h): 10 to 50 nM

O=C1CCC(N2C(=O)c3cccc(N4CC5(CCCN(C6CCC(n7cc8cc(NC(=O)c9cnn%10cccnc9%10)c(OCC9CC9)cc8n7)CC6)C5)C4)c3C2=O)C(=O)N1 (stereo not shown) [Example 419]
DC50 (IRAK-4): 1 to 5 nM
Dmax (IRAK-4): 70 to 80%
PBMC DC90 (IRAK-4): A (A represents a DC90 value <10.0 nM)
Dmax (IL6 [1]; PBMC): 80 to 90%
IC50 (IL6 [1]; PBMC): 10 to 50 nM
Dmax (IL6 [2]; Homo sapiens, PBMC, 24 h): 70 to 80%
IC50 (IL6 [2]; Homo sapiens, PBMC, 24 h): < 10 nM
